Test results: patent publication US20250382277A1, “SMALL MOLECULE INHIBITORS OF DYRK/CLK AND USES THEREOF” (Arizona Board of Regents on Behalf of the University of …, priority 2022, published 2025)

Tests used:
WNT signaling = experiment: WNT reporter assay (TopGFP reporter); format: cell-based; conditions: Human Colonic Epithelial Cells (HCEC) with TopGFP reporter, stimulated with 10 μM CHIR99021, 24 hours
Description: KDs were obtained from Eurofins.

DYRK1A = DYRK1A (Homo sapiens, UniProt Q13627); experiment: biochemical
Description: KDs were obtained from Eurofins. The KdELECT Kinase Assay Panel enables quantitated compound binding affinity against any kinase assay. Inhibitor binding constants (Kd values) are calculated from duplicate 11-point dose-response curves. Measurements are made under optimized conditions that generate true thermodynamic Kd values which facilitate direct comparison of inhibitor affinity across kinases.

**Q.** What does the source list for Nc1cc(-c2ccc3ncnc(-c4ccc(N5CCOCC5)c(F)c4)c3c2)ccn1 [Compound 1, 4-(4-(3-fluoro-4-morpholinophenyl)quinazolin-6-yl)pyridin-2-amine]?
**A.** EC50 (WNT signaling): 100 to 1000 nM; Kd (DYRK1A): < 100 nM

**Q.** For Nc1cc(-c2ccc3ncnc(-c4ccc(CN5CCOCC5)c(F)c4)c3c2)ccn1 [Compound 3, 4-(4-(3-fluoro-4-(morpholinomethyl)phenyl)quinazolin-6-yl)pyridin-2-amine], which EC50 (WNT signaling) is on record?
**A.** 100 to 1000 nM

**Q.** And the Kd (DYRK1A)?
**A.** < 100 nM

**Q.** Which results are given for Nc1cc(-c2ccc3ncnc(-c4cccc(N5CCOCC5)c4)c3c2)ccn1 [Compound 4, 4-(4-(3-morpholinophenyl)quinazolin-6-yl)pyridin-2-amine]?
**A.** EC50 (WNT signaling): > 1000 nM; Kd (DYRK1A): < 100 nM

**Q.** For Nc1cc(-c2ccc3ncnc(-c4cc(F)cc(N5CCOCC5)c4)c3c2)ccn1 [Compound 5, 4-(4-(3-fluoro-5-morpholinophenyl)quinazolin-6-yl)pyridin-2-amine], which Kd (DYRK1A) is on record?
**A.** < 100 nM

**Q.** Which Kd (DYRK1A) does the source give for Nc1cc(-c2ccc3ncnc(-c4ccc(N5CCS(=O)(=O)CC5)cc4)c3c2)ccn1 [Compound 6, 4-(4-(6-(2-aminopyridin-4-yl)quinazolin-4-yl)phenyl)thiomorpholine 1,1-dioxide] here?
**A.** < 100 nM

**Q.** CN1CCN(c2ccc(-c3ncnc4ccc(-c5ccnc(N)c5)cc34)cc2)CC1 [Compound 7, 4-(4-(4-(4-methylpiperazin-1-yl)phenyl)quinazolin-6-yl)pyridin-2-amine] was tested. Which Kd (DYRK1A) did it give?
**A.** < 100 nM

**Q.** For Nc1cc(-c2ccc3ncnc(-c4cccc(CN5CCOCC5)c4)c3c2)ccn1 [Compound 8, 4-(4-(3-(morpholinomethyl)phenyl)quinazolin-6-yl)pyridin-2-amine], which EC50 (WNT signaling) is on record?
**A.** > 1000 nM

**Q.** And the Kd (DYRK1A)?
**A.** < 100 nM

**Q.** Which results are given for CN1CCN(c2ncc(-c3ncnc4ccc(-c5ccnc(N)c5)cc34)cc2F)CC1 [Compound 9, 4-(4-(5-fluoro-6-(4-methylpiperazin-1-yl)pyridin-3-yl)quinazolin-6-yl)pyridin-2-amine]?
**A.** EC50 (WNT signaling): 100 to 1000 nM; Kd (DYRK1A): < 100 nM

**Q.** With Nc1cc(-c2ccc3ncnc(-c4ccc(N5CCOCC5)nc4)c3c2)ccn1 [Compound 10, 4-(4-(6-morpholinopyridin-3-yl)quinazolin-6-yl)pyridin-2-amine] as the molecule, how does the Kd (DYRK1A) read?
**A.** < 100 nM

**Q.** For Nc1cc(-c2ccc3ncnc(-c4cnc(N5CCOCC5)c(F)c4)c3c2)ccn1 [Compound 11, 4-(4-(5-fluoro-6-morpholinopyridin-3-yl)quinazolin-6-yl)pyridin-2-amine], which EC50 (WNT signaling) is on record?
**A.** 100 to 1000 nM

**Q.** And the Kd (DYRK1A)?
**A.** < 100 nM

**Q.** For Nc1cc(-c2ccc3ncnc(-c4ccc(N5CCOCC5)c(F)c4)c3n2)ccn1 [Compound 12, 4-(4-(3-fluoro-4-morpholinophenyl)pyrido[3,2-d]pyrimidin-6-yl)pyridin-2-amine], which EC50 (WNT signaling) is on record?
**A.** < 100 nM

**Q.** And the Kd (DYRK1A)?
**A.** < 100 nM

**Q.** How did the EC50 (WNT signaling) turn out when Nc1cc(-c2ccc3nccc(-c4cnc(N5CCOCC5)c(F)c4)c3c2)ccn1 [Compound 13, 4-(4-(5-fluoro-6-morpholinopyridin-3-yl)quinolin-6-yl)pyridin-2-amine] was run?
**A.** 100 to 1000 nM

**Q.** Which results are given for Nc1cc(-c2ccc3ncnc(-c4ccnc(N5CCOCC5)c4)c3c2)ccn1 [Compound 14, 4-(4-(2-morpholinopyridin-4-yl)quinazolin-6-yl)pyridin-2-amine]?
**A.** EC50 (WNT signaling): > 1000 nM; Kd (DYRK1A): < 100 nM

**Q.** Which results are given for Nc1nccc(-c2ccc3ncnc(-c4ccc(N5CCOCC5)c(F)c4)c3c2)n1 [Compound 15, 4-(4-(3-fluoro-4-morpholinophenyl)quinazolin-6-yl)pyrimidin-2-amine]?
**A.** EC50 (WNT signaling): 100 to 1000 nM; Kd (DYRK1A): < 100 nM

**Q.** For Nc1cc(-c2ccc3ncnc(-c4ccc(N5CCOCC5)cc4)c3c2)ccn1 [Compound 16, 4-(4-(4-morpholinophenyl)quinazolin-6-yl)pyridin-2-amine], which EC50 (WNT signaling) is on record?
**A.** 100 to 1000 nM

**Q.** What about the Kd (DYRK1A) of the same molecule?
**A.** < 100 nM

**Q.** Which EC50 (WNT signaling) does the source give for Cc1cc(-c2ccc3ncnc(-c4ccc(N5CCOCC5)c(F)c4)c3n2)ccn1 [Compound 17, 4-(2-fluoro-4-(6-(2-methylpyridin-4-yl)pyrido[3,2-d]pyrimidin-4-yl)phenyl)morpholine] here?
**A.** > 1000 nM

**Q.** And the Kd (DYRK1A)?
**A.** < 100 nM

**Q.** How did the Kd (DYRK1A) turn out when Nc1cc(-c2ccc3ncnc(-c4ccc(CN5CCOCC5)cc4)c3c2)ccn1 [Compound 18, 4-(4-(4-(morpholinomethyl)phenyl)quinazolin-6-yl)pyridin-2-amine] was run?
**A.** > 1000 nM

**Q.** Nc1cc(-c2ccc3ncnc(-c4cnc(N5CCC(N6CCOCC6)CC5)c(F)c4)c3c2)ccn1 [Compound 19, 4-(4-(5-fluoro-6-(4-morpholinopiperidin-1-yl)pyridin-3-yl)quinazolin-6-yl)pyridin-2-amine] was tested. Which EC50 (WNT signaling) did it give?
**A.** 100 to 1000 nM

**Q.** And the Kd (DYRK1A)?
**A.** < 100 nM

**Q.** With CC1(C)CN(c2ncc(-c3ncnc4ccc(-c5ccnc(N)c5)cc34)cc2F)CCO1 [Compound 20, 4-(4-(6-(2,2-dimethylmorpholino)-5-fluoropyridin-3-yl)quinazolin-6-yl)pyridin-2-amine] as the molecule, how does the EC50 (WNT signaling) read?
**A.** > 1000 nM

**Q.** And the Kd (DYRK1A)?
**A.** < 100 nM

**Q.** Which results are given for COc1ccc(-c2ncnc3ccc(-c4ccnc(N)c4)cc23)cc1C [Compound 21, 4-(4-(4-methoxy-3-methylphenyl)quinazolin-6-yl)pyridin-2-amine]?
**A.** EC50 (WNT signaling): 100 to 1000 nM; Kd (DYRK1A): < 100 nM

**Q.** CC(=O)N1CCN(c2ccc(-c3ncnc4ccc(-c5cn[nH]c5)cc34)cc2)CC1 [Compound 37, 1-(4-(4-(6-(1H-pyrazol-4-yl)quinazolin-4-yl)phenyl)piperazin-1-yl)ethan-1-one] was tested. Which EC50 (WNT signaling) did it give?
**A.** < 100 nM

**Q.** Nc1cc(-c2ccc3ncnc(-c4ccc(N5CC6(C5)CN(C5COC5)C6)c(F)c4)c3c2)ccn1 [Compound 57, 4-(4-(3-fluoro-4-(6-(oxetan-3-yl)-2,6-diazaspiro[3.3]heptan-2-yl)phenyl)quinazolin-6-yl)pyridin-2-amine] was tested. Which EC50 (WNT signaling) did it give?
**A.** 100 to 1000 nM

**Q.** How did the EC50 (WNT signaling) turn out when CC(=O)N1CC2(C1)CN(c1ccc(-c3ncnc4ccc(-c5ccnc(N)c5)cc34)cc1F)C2 [Compound 58, 1-(6-(4-(6-(2-aminopyridin-4-yl)quinazolin-4-yl)-2-fluorophenyl)-2,6-diazaspiro[3.3]heptan-2-yl)ethan-1-one] was run?
**A.** < 100 nM

**Q.** How did the EC50 (WNT signaling) turn out when CS(=O)(=O)N1CCN(c2ccc(-c3ncnc4ccc(-c5ccnc(N)c5)cc34)cc2Cl)CC1 [Compound 59, 4-(4-(3-chloro-4-(4-(methylsulfonyl)piperazin-1-yl)phenyl)quinazolin-6-yl)pyridin-2-amine] was run?
**A.** < 100 nM

**Q.** For CN[C@H]1CCN(c2ccc(-c3ncnc4ccc(-c5ccnc(N)c5)cc34)cc2F)C1 [Compound 60, (S)-4-(4-(3-fluoro-4-(3-(methylamino)pyrrolidin-1-yl)phenyl)quinazolin-6-yl)pyridin-2-amine], which EC50 (WNT signaling) is on record?
**A.** > 1000 nM

**Q.** For Cc1cc(-c2ncnc3ccc(-c4ccnc(N)c4)cc23)ccc1N1CCN(C)CC1 [Compound 61, 4-(4-(3-methyl-4-(4-methylpiperazin-1-yl)phenyl)quinazolin-6-yl)pyridin-2-amine], which EC50 (WNT signaling) is on record?
**A.** 100 to 1000 nM

**Q.** For CN1CCN(c2ccc(-c3ncnc4ccc(-c5ccnc(N)c5)cc34)cc2Cl)CC1 [Compound 62, 4-(4-(3-chloro-4-(4-methylpiperazin-1-yl)phenyl)quinazolin-6-yl)pyridin-2-amine], which EC50 (WNT signaling) is on record?
**A.** < 100 nM

**Q.** Which EC50 (WNT signaling) does the source give for CS(=O)(=O)N1CCN(c2ccc(-c3ncnc4ccc(-c5ccnc(N)c5)cc34)cc2C(F)(F)F)CC1 [Compound 63, 4-(4-(4-(4-(methylsulfonyl)piperazin-1-yl)-3-(trifluoromethyl)phenyl)quinazolin-6-yl)pyridin-2-amine] here?
**A.** < 100 nM

**Q.** With Nc1cc(-c2ccc3ncnc(-c4ccc(N5CCN(CC6COC6)CC5)c(F)c4)c3c2)ccn1 [Compound 64, 4-(4-(3-fluoro-4-(4-(oxetan-3-ylmethyl)piperazin-1-yl)phenyl)quinazolin-6-yl)pyridin-2-amine] as the molecule, how does the EC50 (WNT signaling) read?
**A.** < 100 nM
